Patent publication US20080213250A1, “Use of Eph Receptor Inhibitors for the Treatment of Neurodegenerative Diseases” (priority 2004, published 2008)

Experiments:
EphA5 = EphA5 (Mus musculus, UniProt Q60629); assay: Chemical proteomics pull-down with immobilized compound, LC-MS/MS identification; details: maximum in any chemical proteomics experiment
EphB6 = molecular target: T1, EphB6 (Mus musculus, UniProt O08644); assay: as above; details: maximum in any chemical proteomics experiment
T1 sequence (O08644 33-1014): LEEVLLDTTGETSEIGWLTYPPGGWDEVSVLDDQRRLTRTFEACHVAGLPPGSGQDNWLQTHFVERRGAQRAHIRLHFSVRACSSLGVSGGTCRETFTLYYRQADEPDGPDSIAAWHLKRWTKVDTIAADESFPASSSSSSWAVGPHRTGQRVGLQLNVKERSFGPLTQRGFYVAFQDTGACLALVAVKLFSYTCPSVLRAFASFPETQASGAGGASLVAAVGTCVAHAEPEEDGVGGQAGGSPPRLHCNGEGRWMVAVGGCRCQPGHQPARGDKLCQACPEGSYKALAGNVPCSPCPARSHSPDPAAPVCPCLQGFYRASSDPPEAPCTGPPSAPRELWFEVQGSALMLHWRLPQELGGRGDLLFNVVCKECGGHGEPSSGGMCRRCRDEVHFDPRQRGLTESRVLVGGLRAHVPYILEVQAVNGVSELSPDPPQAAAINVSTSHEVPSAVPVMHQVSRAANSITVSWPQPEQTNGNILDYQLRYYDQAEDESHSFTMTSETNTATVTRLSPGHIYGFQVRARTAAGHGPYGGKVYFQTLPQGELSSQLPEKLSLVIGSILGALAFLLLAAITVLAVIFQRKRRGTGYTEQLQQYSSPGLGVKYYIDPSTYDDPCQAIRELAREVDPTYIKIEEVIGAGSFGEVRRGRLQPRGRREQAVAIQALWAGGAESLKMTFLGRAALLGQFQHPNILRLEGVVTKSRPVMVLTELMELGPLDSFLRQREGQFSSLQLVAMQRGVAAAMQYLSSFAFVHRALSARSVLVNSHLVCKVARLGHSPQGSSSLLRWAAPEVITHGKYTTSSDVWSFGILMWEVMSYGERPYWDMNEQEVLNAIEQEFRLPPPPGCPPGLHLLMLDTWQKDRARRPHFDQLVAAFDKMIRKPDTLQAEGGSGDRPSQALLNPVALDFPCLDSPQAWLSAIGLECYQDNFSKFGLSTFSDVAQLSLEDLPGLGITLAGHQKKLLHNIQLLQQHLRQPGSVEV

EphA6 = molecular target: T2, EphA6 (Mus musculus, UniProt Q62413); assay: as above; details: maximum in any chemical proteomics experiment
T2 sequence (Q62413 23-1035): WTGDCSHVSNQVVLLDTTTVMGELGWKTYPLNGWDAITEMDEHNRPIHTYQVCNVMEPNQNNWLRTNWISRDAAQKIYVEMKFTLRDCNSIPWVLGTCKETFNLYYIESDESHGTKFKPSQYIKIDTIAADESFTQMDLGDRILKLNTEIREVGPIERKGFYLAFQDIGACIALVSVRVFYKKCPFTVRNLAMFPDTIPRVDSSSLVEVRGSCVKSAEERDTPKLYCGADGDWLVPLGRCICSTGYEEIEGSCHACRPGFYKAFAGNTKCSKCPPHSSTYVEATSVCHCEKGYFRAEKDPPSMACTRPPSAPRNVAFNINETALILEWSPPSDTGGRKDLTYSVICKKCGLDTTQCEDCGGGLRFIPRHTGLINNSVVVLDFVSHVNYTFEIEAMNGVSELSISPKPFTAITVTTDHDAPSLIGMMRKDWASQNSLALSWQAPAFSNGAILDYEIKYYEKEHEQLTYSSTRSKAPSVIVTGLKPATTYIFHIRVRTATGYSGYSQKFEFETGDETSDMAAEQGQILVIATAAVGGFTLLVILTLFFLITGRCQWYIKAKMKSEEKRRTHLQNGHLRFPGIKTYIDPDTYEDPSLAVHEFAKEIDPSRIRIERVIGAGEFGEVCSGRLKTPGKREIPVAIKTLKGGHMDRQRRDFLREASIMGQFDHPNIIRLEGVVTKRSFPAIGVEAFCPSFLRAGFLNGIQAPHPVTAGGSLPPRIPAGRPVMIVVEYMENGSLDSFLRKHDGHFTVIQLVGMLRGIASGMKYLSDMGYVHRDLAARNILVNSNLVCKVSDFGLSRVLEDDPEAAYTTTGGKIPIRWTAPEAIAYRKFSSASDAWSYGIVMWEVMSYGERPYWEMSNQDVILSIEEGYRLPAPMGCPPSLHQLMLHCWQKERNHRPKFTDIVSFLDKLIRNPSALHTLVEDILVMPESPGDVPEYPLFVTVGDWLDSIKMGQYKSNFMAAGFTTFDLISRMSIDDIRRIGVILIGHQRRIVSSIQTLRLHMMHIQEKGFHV

TAP-tagged Eph kinases = assay: Autophosphorylation of TAP-tagged Eph kinases in-vitro; type: biochemical; details: data not shown
EphA7 = EphA7 (Mus musculus, UniProt Q61772); assay: Chemical proteomics pull-down with immobilized compound, LC-MS/MS identification; details: maximum in any chemical proteomics experiment
Chain of EphA7 (Q61772 28-998): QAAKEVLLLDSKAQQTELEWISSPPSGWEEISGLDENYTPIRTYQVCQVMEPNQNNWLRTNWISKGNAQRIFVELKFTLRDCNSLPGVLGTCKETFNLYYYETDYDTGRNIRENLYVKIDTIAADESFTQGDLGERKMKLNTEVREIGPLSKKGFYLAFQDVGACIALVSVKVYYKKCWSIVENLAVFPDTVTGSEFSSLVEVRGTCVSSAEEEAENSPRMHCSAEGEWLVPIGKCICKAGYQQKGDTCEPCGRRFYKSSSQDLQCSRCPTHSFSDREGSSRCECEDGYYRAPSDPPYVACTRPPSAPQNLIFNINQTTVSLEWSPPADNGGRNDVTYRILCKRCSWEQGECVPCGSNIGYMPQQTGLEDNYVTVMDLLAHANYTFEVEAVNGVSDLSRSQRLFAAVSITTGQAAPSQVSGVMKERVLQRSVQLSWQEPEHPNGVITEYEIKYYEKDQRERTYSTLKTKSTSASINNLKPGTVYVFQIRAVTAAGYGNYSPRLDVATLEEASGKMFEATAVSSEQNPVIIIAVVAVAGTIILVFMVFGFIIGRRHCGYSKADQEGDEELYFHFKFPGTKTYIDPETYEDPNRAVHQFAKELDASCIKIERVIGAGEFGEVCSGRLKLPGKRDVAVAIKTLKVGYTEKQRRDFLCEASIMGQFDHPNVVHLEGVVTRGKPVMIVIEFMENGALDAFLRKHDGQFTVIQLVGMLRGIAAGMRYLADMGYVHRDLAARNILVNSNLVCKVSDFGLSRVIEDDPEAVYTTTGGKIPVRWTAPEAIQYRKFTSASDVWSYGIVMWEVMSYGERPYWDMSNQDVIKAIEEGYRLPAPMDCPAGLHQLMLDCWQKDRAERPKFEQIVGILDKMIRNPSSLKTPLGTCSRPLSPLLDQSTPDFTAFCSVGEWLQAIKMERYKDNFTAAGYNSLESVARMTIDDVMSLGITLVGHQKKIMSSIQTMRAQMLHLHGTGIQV

EphA2 = EphA2 (Mus musculus, UniProt Q03145); assay: as above; details: maximum in any chemical proteomics experiment
Chain of EphA2 (Q03145 26-977): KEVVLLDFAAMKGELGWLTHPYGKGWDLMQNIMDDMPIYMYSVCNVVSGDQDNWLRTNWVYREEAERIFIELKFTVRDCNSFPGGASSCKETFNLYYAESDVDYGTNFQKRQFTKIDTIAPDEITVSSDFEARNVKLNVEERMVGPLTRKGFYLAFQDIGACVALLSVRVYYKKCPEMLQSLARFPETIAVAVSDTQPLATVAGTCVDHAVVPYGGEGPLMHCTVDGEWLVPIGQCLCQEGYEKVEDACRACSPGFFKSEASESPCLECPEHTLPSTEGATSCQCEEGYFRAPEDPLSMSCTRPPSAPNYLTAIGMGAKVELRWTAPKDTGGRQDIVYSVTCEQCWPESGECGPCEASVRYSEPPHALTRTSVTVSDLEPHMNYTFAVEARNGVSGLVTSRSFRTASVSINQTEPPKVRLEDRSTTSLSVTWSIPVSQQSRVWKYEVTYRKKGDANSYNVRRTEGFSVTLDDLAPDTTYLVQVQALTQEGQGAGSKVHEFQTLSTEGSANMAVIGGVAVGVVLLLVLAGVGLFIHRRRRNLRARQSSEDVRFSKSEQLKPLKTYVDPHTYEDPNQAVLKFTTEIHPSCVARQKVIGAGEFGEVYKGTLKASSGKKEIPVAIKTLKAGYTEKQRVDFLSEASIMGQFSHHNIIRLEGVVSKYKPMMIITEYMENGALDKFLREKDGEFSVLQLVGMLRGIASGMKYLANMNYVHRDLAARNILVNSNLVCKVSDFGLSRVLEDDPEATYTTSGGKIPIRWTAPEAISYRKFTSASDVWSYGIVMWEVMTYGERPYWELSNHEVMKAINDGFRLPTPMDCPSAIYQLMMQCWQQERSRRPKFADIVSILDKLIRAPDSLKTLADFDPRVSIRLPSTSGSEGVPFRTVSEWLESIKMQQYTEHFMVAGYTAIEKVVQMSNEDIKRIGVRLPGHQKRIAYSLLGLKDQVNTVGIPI

Chain of EphA5 (Q60629 27-876): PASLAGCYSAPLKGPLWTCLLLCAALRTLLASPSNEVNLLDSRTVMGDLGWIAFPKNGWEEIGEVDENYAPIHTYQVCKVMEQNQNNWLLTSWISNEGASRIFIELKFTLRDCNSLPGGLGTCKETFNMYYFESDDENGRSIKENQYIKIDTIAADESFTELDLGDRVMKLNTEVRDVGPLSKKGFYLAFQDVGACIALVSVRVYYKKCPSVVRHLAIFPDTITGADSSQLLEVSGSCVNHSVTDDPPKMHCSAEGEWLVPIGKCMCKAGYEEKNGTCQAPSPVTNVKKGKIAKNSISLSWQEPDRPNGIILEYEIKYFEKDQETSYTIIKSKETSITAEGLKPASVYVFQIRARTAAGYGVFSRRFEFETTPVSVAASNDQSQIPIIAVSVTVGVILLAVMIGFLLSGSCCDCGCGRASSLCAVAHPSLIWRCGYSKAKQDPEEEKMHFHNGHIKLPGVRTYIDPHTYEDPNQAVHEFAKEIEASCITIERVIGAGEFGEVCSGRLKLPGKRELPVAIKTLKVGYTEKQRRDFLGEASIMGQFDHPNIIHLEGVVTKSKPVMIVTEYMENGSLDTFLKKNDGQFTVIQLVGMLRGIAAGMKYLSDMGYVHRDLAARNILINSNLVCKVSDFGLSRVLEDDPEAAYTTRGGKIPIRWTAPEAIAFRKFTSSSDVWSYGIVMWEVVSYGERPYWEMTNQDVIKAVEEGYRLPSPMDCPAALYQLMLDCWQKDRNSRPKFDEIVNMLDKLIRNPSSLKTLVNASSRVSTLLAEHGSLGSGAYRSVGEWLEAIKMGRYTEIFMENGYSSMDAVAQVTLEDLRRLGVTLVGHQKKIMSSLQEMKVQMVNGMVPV

Row | maximal number of non-redundant peptides identified, EphA5 (EphA5) | maximal number of non-redundant peptides identified, EphB6 (EphB6) | maximal number of non-redundant peptides identified, EphA6 (EphA6) | maximal number of non-redundant peptides identified, EphA7 (EphA7) | maximal number of non-redundant peptides identified, EphA2 (EphA2) | SMILES | inhibition of autophosphorylation of TAP-tagged Eph kinases in-vitro (TAP-tagged Eph kinases)
1 | 4 | 7 | 7 | 7 |  | CSc1cccc(Nc2ncc3cc(-c4c(Cl)cccc4Cl)c(=O)n(C)c3n2)c1 [PD173955] | potent inhibitors
2 | 5 |  |  | 4 | 18 | CC(C)[C@H](CO)Nc1nc(Nc2ccc(C(=O)O)c(Cl)c2)c2ncn(C(C)C)c2n1 [Purvalanol B] | 
